PMC5474674, “D-BMAP18 Antimicrobial Peptide Is Active In vitro, Resists to Pulmonary Proteases but Loses Its Activity in a Murine Model of Pseudomonas aeruginosa Lung Infection” (Frontiers in Chemistry, 2017)
≈ marks a conversion by molar mass, not a printed value. Where a SMILES comes first, the peptide text is derived from it. [ ]: non-standard residue; d: D form.

Assays:
P. aeruginosa RP73 = type: in vivo, mouse; settings: mouse, in vivo
Protocol: C57/Bl6NCrl mice (n = 8/group) were intratracheally challenged with 1 × 10^7 cells P. aeruginosa RP73 clinical strain, and 5 min later a single dose of D-BMAP18 at different concentrations (0.5, 1, and 2 mg/kg) was intratracheally administrated. Sterile distilled water alone or tobramycin [10 mg/kg] (Sigma-Aldrich S.r.l.), were used respectively as negative and positive control. […] Subsequently, lungs were homogenized (24,000 rpm) on ice in 1 ml of sterile PBS by using Ultra-Turrax T25-Basic homogenizer (IKA-Werke GmbH & Co. KG, Germany). Ten-fold serial dilutions of lung homogenates were plated on MH agar (Oxoid SpA), and the number of colony-forming units (CFU) was counted after incubation at 37°C for 24 h.

C57BL/6NCrl mice = experiment: In vivo acute toxicity, intratracheal; parameters: species or system mouse
Protocol: In vivo acute toxicity of D-BMAP18 was evaluated in C57BL/6NCrl mice (n = 5/group) (male; 22 g; 6 ± 2 week-old) obtained from Charles River Laboratories Italia S.r.l. (Calco, Milan, Italy). Mice were intra-tracheally challenged with increasing doses (1, 2, 4, and 8 mg/kg) of D-BMAP18 prepared in sterile distilled water. Control mice received vehicle only (sterile distilled water). General health and animal behavior (ruffled coats, huddled position, lack of retreat in handler's presence), weight loss, and survival were monitored daily over a 5-day period, comparatively to control mice. […] Subsequently, lungs were removed en bloc from the chest via sterile excision and immediately weighed. These experiments were carried out in accordance with the recommendations of the Guide for the Care and Use of Laboratory Animals of the National Institute of Health and in accordance with the ethical standards of the Animal Care Committee of the “G. d'Annunzio” University of Chieti-Pescara. The protocol was approved by the Animal Care Committee of the “G. d'Annunzio” University of Chieti-Pescara.

S. maltophilia = type: cell-based, Stenotrophomonas maltophilia; settings: 24 h
Protocol: P. aeruginosa, S. maltophilia, and Staphylococcus aureus strains were originally isolated from respiratory specimens of CF patients admitted to the “Bambino Gesù” Children Hospital in Rome and previously tested with AMPs (Pompilio et al., [2012]). P. aeruginosa RP73, and PAO1 were tested as reference strains.
(§1) MIC values were determined using the broth microdilution method.

S. maltophilia SM103 = experiment: MIC/MBC broth microdilution; type: cell-based, Stenotrophomonas maltophilia; settings: D-BMAP18, strain SM103, n = 6
Protocol: as §1

S. maltophilia SM106 = experiment: MIC/MBC broth microdilution; type: cell-based, Stenotrophomonas maltophilia; settings: D-BMAP18, strain SM106, n = 6
Protocol: as §1

S. maltophilia SM120 = experiment: MIC/MBC broth microdilution; type: cell-based, Stenotrophomonas maltophilia; settings: D-BMAP18, strain SM120, n = 6
Protocol: as §1

S. maltophilia SM126 = experiment: MIC/MBC broth microdilution; type: cell-based, Stenotrophomonas maltophilia; settings: D-BMAP18, strain SM126, n = 6
Protocol: as §1

S. maltophilia SM110 = experiment: MIC/MBC broth microdilution; type: cell-based, Stenotrophomonas maltophilia; settings: D-BMAP18, strain SM110, n = 6
Protocol: as §1

S. maltophilia SM122 = experiment: MIC/MBC broth microdilution; type: cell-based, Stenotrophomonas maltophilia; settings: D-BMAP18, strain SM122, n = 6
Protocol: as §1

S. maltophilia SM123 = experiment: MIC/MBC broth microdilution; type: cell-based, Stenotrophomonas maltophilia; settings: D-BMAP18, strain SM123, n = 6
Protocol: as §1

S. maltophilia SM136 = experiment: MIC/MBC broth microdilution; type: cell-based, Stenotrophomonas maltophilia; settings: D-BMAP18, strain SM136, n = 6
Protocol: as §1

S. maltophilia SM143 = experiment: MIC/MBC broth microdilution; type: cell-based, Stenotrophomonas maltophilia; settings: D-BMAP18, strain SM143, n = 6
Protocol: as §1

S. maltophilia SM105 = experiment: MIC/MBC broth microdilution; type: cell-based, Stenotrophomonas maltophilia; settings: D-BMAP18, strain SM105, n = 6
Protocol: as §1

S. maltophilia SM130 = experiment: MIC/MBC broth microdilution; type: cell-based, Stenotrophomonas maltophilia; settings: D-BMAP18, strain SM130, n = 6
Protocol: as §1

S. maltophilia SM139 = experiment: MIC/MBC broth microdilution; type: cell-based, Stenotrophomonas maltophilia; settings: D-BMAP18, strain SM139, n = 6
Protocol: as §1

S. aureus SA2 = settings: D-BMAP18; strain SA2; broth microdilution, MH broth, 37°C 24 h; n = 6
P. aeruginosa PA21 = experiment: MIC/MBC broth microdilution; type: cell-based, Pseudomonas aeruginosa; settings: D-BMAP18, strain PA21, n = 6
Protocol: as §1

P. aeruginosa PA05 = experiment: MIC/MBC broth microdilution; type: cell-based, Pseudomonas aeruginosa; settings: D-BMAP18, strain PA05, n = 6
Protocol: as §1

[1] = broth microdilution, MH broth, 37°C 24 h
[2] = kills at least 99.9% of inoculum

`CC(C)C[C@@H](NC(=O)[C@@H](CCCCN)NC(=O)[C@@H](CCCCN)NC(=O)[C@@H](Cc1ccccc1)NC(=O)[C@@H](CC(C)C)NC(=O)[C@@H](CCCCN)NC(=O)[C@@H](CCCCN)NC(=O)[C@@H](Cc1ccccc1)NC(=O)[C@@H](CCCCN)NC(=O)[C@@H](CCCCN)NC(=O)[C@@H](CCCNC(=N)N)NC(=O)[C@@H](Cc1ccccc1)NC(=O)[C@@H](CCCNC(=N)N)NC(=O)[C@@H](CCCCN)NC(=O)[C@@H](Cc1ccccc1)NC(=O)[C@@H](CCCNC(=N)N)NC(=O)CN)C(=O)N[C@H](CO)C(N)=O` [D-BMAP18] (H-G[dR][dF][dK][dR][dF][dR][dK][dK][dF][dK][dK][dL][dF][dK][dK][dL][dS]-NH2) was tested, and the “trend between dose and macroscopic lung damage” value (P. aeruginosa RP73) was “not statistically significant”, the “macroscopic lung pathology (four-point score)” value (C57BL/6NCrl mice; 1 mg/kg single intratracheal instillation, day 5 p.e., n = 5/group) was “No pulmonary damage” and the “macroscopic lung pathology, median score (four-point scoring)” value (C57BL/6NCrl mice; 2 mg/kg single intratracheal instillation, day 5 p.e., n = 5/group, p < 0.05 vs control) was 2.5. The “macroscopic lung pathology, median score (four-point scoring)” value (C57BL/6NCrl mice; 8 mg/kg single intratracheal instillation, day 5 p.e., n = 5/group, p < 0.01 vs control) was 3, the “change in body weight, first 2 days” value (C57BL/6NCrl mice; 1, 2, 4, 8 mg/kg intratracheal, first 2 days p.e., regardless of dose, vs unexposed control) was “significant (p<0.01) decrease” and the “change in body weight” value (C57BL/6NCrl mice; 1-8 mg/kg intratracheal, over 5 days p.e., also at the lowest dose, dose-dependent) was “significant reduction in body weight”. The MIC90 (S. maltophilia) was 16 µg/mL (≈ 6.83 µM), the MIC (S. maltophilia SM103; [1]) was 4 µg/mL (≈ 1.71 µM) and the MBC (S. maltophilia SM103; [2]) was 4 µg/mL (≈ 1.71 µM). For the same molecule, the MIC (S. maltophilia SM106; [1]) was 32 µg/mL (≈ 13.7 µM), the MBC (S. maltophilia SM106; [2]) was 32 µg/mL (≈ 13.7 µM) and the MIC (S. maltophilia SM120; [1]) was 8 µg/mL (≈ 3.42 µM). For the same molecule, the MBC (S. maltophilia SM120; [2]) was 16 µg/mL (≈ 6.83 µM), the MIC (S. maltophilia SM126; [1]) was 16 µg/mL (≈ 6.83 µM) and the MBC (S. maltophilia SM126; [2]) was 32 µg/mL (≈ 13.7 µM). The MIC (S. maltophilia SM110; [1]) was 4 µg/mL (≈ 1.71 µM), the MBC (S. maltophilia SM110; [2]) was 4 µg/mL (≈ 1.71 µM) and the MIC (S. maltophilia SM122; [1]) was 16 µg/mL (≈ 6.83 µM). The MBC (S. maltophilia SM122; [2]) was 16 µg/mL (≈ 6.83 µM), the MIC (S. maltophilia SM123; [1]) was 16 µg/mL (≈ 6.83 µM) and the MBC (S. maltophilia SM123; [2]) was 16 µg/mL (≈ 6.83 µM). The MIC (S. maltophilia SM136; [1]) was 8 µg/mL (≈ 3.42 µM), the MBC (S. maltophilia SM136; [2]) was 16 µg/mL (≈ 6.83 µM) and the MIC (S. maltophilia SM143; [1]) was 8 µg/mL (≈ 3.42 µM). The MBC (S. maltophilia SM143; [2]) was 8 µg/mL (≈ 3.42 µM), the MIC (S. maltophilia SM105; [1]) was 8 µg/mL (≈ 3.42 µM) and the MBC (S. maltophilia SM105; [2]) was 8 µg/mL (≈ 3.42 µM). The MIC (S. maltophilia SM130; [1]) was 8 µg/mL (≈ 3.42 µM), the MBC (S. maltophilia SM130; [2]) was 16 µg/mL (≈ 6.83 µM) and the MIC (S. maltophilia SM139; [1]) was 8 µg/mL (≈ 3.42 µM). The MBC (S. maltophilia SM139; [2]) was 8 µg/mL (≈ 3.42 µM), the MIC (S. aureus SA2) was over 32 µg/mL and the MIC (P. aeruginosa PA21; [1]) was 16 µg/mL (≈ 6.83 µM). The MBC (P. aeruginosa PA21; [2]) was 32 µg/mL (≈ 13.7 µM), the MIC (P. aeruginosa PA05; [1]) was 4 µg/mL (≈ 1.71 µM) and the MBC (P. aeruginosa PA05; [2]) was 8 µg/mL (≈ 3.42 µM).
